Test results reported in US20230126204A1, “[1,3]DIAZINO[5,4-d]PYRIMIDINES AS HER2 INHIBITORS” (Boehringer Ingelheim International GmbH, priority 2020, published 2023).

Key:
Assay type in all cases: cell-based
Ba/F3 cells HER2 WT = assay: Ba/F3 proliferation assay HER2 WT; settings: Mus musculus, BaF3; 72 h, CellTiter-Glo
Description: (§1) Ba/F3 cell model generation and proliferation assays
(§2) Plasmids containing HER2 mutants and EGFR WT were obtained from GeneScript. To generate EGFR/HER2-dependent Ba/F3 models, Ba/F3 cells were transduced with retroviruses containing vectors that harbor EGFR WT, HER2 WT or HER2 mutants (YVMA). Platinum-E cells (Cell Biolabs) were used for retrovirus packaging. Retrovirus was added to Ba/F3 cells. To ensure infection, 4 μg/mL polybrene was added and cells were spinfected. Infection efficiency was confirmed by measuring GFP-positive cells using a cell analyzer. Cells with an infection efficiency of 10% to 20% were further cultivated and puromycin selection with 1 μg/mL was initiated. As a control, parental Ba/F3 cells were used to assess the selection status. Selection was considered successful when parental Ba/F3 cells cultures died. To evaluate the transforming potential of HER2 mutations, the growth medium was no longer supplemented with IL-3. Ba/F3 cells harboring the empty vector were used as a control. A switch from IL-3 to EGF was performed for Ba/F3 cells with the EGFR WT known for its dependency on EGF ligand. Approximately ten days before conducting the experiments, puromycin was left out. For proliferation assays (data in table 12 and 14), Ba/F3 cells were seeded into 96-well plates at 5×10^3 cells/100 μL in growth media. Compounds were added by using a HP D3000 Digital Dispenser. All treatments were performed in technical triplicates. Treated cells were incubated for 72 h at 37° C. with 5% CO2. CellTiter-Glo® Luminescent Cell Viability Assay (Promega) was performed and chemoluminescence was measured by using the multilabel Plate Reader VICTOR X4. The raw data were imported into and analyzed with the Boehringer Ingelheim proprietary software MegaLab (curve fitting based on the program PRISM, GraphPad Inc.).

[1] = system: NCI-H2170 (HER2 wild type) cells; assay: Tumor cell proliferation assay NCI-H2170 (HER2 wild type); settings: Homo sapiens, 72 h, CellTiter-Glo, read-out: GI50 NCI H-2170 HER2 wt amp.
Description: (§3) For proliferation assays, NCI-H2170 (HER2 wild type), NCI-H2170 HER2 YVMA and EGFR WT dependent A431 cells were used. NCI-H2170 HER2 YVMA or NCI-H2170 cells were seeded into 96-well plates at 750 cells/60 μL in growth media (RPMI ATCC+10% FBS, +Penicillin/Streptomycin). […] Compounds were added by using a HP D3000 Digital Dispenser one day after plating the cells. All treatments were performed in technical triplicates. Treated cells were incubated for 72 h at 37° C. with 5% CO2. CellTiter-Glo® Luminescent Cell Viability Assay (Promega) was performed and chemoluminescence was measured by using the multilabel Plate Reader VICTOR X4. The raw data were imported into and analyzed with the Boehringer Ingelheim proprietary software MegaLab (curve fitting based on the program PRISM, GraphPad Inc.).

Ba/F3 cells EGFR WT = assay: Ba/F3 proliferation assay EGFR WT (EGF dependent); settings: Mus musculus, BaF3, EGF instead of IL-3, 72 h, CellTiter-Glo, read-out: GI50 BAF3 EGF dep.
Description: as §1, §2

HER2 YVMA = target: T1, HER2 YVMA (Homo sapiens, UniProt P04626, INS775YVMA); assay: pHER2 (ERBB2) YVMA assay (AlphaScreen Surefire, HEK cells); settings: HEK cells expressing HER2 YVMA, phosphorylation at Tyr1221/1222, 4 h
T1 construct: expressed in transfected cells; host or cells: human HEK cells, retroviral transduction, puromycin selection, doxycycline-inducible expression
Description: (§4) For the assay, HEK HER2 YVMA cells were seeded in MEM medium with 10% FBS. 4 hours prior to compound addition, HER2 YVMA expression was induced using 1 μg/ml Doxycycline. […] Subsequently, 60.000 cells/well in 60 μL were added. Cells were incubated with compounds for 4 h at 37° C. […] The mixture was incubated at a temperature of 20-25° C. with shaking (700 rpm) for 20 min. After centrifugation, 4 μL of the lysate were transferred to Proxiplates. […] Plates were shaken for 1 min (1400 rpm) and incubated for 2 h at a temperature of 20-25° C. in the dark.
The results of the assay are provided as IC50 values.

EGFR wild type (WT) = target: T2, EGFR wild type (WT) (Homo sapiens, UniProt P00533); assay: pEGFR assay (AlphaScreen Surefire, HEK cells); settings: HEK cells expressing EGFR WT, phosphorylation at Tyr1068, 4 h
T2 construct: expressed in transfected cells; host or cells: human HEK cells (ATCC CRL-1573), retroviral transduction, puromycin selection
Description: This assay quantifies the phosphorylation of EGFR at Tyr1068 and was used to measure the inhibitory effect of compounds on the transgenic EGFR wild type (WT) protein expressed in HEK cells.
as §4, with “Transduced cells were selected using puromycin. p-EGFR Tyr1068 was determined using the AlphaScreen Surefire pEGF Receptor (Tyr1068) Assay (PerkinElmer, TGRERS). For” for “For”, “EGFR WT” for “HER2 YVMA”, “FBS.” for “FBS. 4 hours prior to compound addition, HER2 YVMA expression was induced using 1 μg/ml Doxycycline.”
This cellular phospho-EGFR (pEGFR) compound dose-response assay quantifies the phosphorylation of EGFR at Tyr1068 in HEK cells expressing EGFR WT. The results of the assay are provided as IC50 values.

[2] = system: Ba/F3 cells HER2 mutants (YVMA); assay: Ba/F3 proliferation assay HER2 YVMA; settings: Mus musculus, BaF3; 72 h, CellTiter-Glo
Description: as §1, §2

[3] = system: EGFR WT dependent A431 cells; assay: Tumor cell proliferation assay A431 (EGFR WT dependent); settings: Homo sapiens, A-431; 72 h, CellTiter-Glo; read-out: GI50 A431 EGFR wt amp.
Description: as §3

[4] = system: NCI-H2170 HER2 YVMA cells; assay: Tumor cell proliferation assay NCI-H2170 HER2 YVMA; settings: Homo sapiens, 72 h, CellTiter-Glo, read-out: GI50 NCI H-2170 HER2 YVMA
From the text: HER2 YVMA tumor cell line model generation and proliferation assays
Homology-directed genome engineering was employed to insert a 12 nucleotide sequence encoding YVMA into Exon 20 of the genomic HER2 locus in NCI-H2170 cells. […] The DNA template containing the HER2 exon 20 YVMA insertion variant was obtained from GenScript. PCR followed by Sanger sequencing was used to confirm the presence of the 12-nucleotide insertion in HER2 Exon 20 resulting in the YVMA amino acid duplication.
as §3

T1 sequence (P04626 with tags, fused parts or gaps INS775YVMA): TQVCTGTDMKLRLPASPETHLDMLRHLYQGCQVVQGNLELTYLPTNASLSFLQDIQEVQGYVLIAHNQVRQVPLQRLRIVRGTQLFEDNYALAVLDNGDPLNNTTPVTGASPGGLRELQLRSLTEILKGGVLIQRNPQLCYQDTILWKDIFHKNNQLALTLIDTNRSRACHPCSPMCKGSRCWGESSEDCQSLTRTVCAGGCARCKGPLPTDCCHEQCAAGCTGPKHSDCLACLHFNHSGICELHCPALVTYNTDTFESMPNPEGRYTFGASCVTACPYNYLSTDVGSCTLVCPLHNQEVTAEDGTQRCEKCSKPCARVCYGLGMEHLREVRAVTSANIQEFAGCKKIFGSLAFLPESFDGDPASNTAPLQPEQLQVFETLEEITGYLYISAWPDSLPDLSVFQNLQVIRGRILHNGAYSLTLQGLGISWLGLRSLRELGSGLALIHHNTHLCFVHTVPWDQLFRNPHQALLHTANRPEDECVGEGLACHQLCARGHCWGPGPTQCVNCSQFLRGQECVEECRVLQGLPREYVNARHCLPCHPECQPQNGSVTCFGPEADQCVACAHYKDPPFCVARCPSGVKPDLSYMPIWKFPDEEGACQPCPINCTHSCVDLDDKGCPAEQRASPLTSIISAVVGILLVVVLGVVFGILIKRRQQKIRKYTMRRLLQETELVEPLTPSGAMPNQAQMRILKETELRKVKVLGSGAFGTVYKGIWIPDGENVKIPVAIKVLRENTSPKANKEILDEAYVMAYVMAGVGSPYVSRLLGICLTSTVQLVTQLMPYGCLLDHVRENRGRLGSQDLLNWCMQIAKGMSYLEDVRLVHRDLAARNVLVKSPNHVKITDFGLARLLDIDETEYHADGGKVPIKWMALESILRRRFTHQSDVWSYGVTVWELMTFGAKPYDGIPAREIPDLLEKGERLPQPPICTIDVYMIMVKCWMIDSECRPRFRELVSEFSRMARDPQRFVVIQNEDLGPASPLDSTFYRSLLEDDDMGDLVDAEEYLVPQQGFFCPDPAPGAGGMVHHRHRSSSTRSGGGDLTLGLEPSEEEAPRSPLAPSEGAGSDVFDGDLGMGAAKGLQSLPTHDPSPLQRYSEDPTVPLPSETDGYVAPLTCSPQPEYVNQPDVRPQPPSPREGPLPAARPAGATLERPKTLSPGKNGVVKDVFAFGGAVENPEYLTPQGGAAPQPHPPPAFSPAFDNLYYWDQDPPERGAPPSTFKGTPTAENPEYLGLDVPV
T2 sequence (P00533 25-1210): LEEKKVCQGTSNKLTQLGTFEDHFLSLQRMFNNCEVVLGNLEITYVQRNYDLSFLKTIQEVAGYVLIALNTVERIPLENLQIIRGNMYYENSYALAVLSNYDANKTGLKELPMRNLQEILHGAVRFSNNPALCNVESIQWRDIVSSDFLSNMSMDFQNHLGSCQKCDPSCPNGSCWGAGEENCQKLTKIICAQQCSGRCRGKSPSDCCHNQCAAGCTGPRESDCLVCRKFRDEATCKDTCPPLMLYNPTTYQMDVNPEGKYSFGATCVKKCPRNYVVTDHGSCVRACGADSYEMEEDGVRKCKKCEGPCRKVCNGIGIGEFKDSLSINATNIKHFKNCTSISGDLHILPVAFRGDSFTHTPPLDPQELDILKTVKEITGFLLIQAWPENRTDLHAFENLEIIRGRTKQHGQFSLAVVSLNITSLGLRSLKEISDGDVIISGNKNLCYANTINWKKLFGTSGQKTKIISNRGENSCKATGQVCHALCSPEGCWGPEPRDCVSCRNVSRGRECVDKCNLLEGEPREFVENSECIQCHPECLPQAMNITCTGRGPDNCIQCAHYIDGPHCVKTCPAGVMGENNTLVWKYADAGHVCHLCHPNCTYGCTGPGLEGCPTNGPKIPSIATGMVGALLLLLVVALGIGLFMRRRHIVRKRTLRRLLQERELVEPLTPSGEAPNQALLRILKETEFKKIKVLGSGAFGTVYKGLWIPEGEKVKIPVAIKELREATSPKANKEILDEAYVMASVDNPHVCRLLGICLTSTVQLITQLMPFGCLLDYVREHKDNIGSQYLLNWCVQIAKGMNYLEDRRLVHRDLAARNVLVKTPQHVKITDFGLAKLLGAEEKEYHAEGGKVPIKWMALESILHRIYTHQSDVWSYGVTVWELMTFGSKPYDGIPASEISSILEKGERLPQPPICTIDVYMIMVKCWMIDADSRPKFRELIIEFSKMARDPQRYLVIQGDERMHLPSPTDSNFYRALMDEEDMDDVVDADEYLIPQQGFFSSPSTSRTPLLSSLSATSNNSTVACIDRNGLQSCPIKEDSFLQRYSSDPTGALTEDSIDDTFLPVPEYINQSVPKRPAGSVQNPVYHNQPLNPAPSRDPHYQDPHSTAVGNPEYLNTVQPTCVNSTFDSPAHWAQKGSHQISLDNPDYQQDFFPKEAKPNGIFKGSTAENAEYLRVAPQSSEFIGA

GI50 (Ba/F3 cells HER2 WT): 7 nM | GI50 (Ba/F3 cells EGFR WT): 1180 nM | IC50 (HER2 YVMA): 27 nM | IC50 (EGFR wild type (WT)): 873 nM | GI50 [2]: 48 nM | GI50 [3]: 4810 nM
SMILES: C=CC(=O)N1CCN(c2ncc3ncnc(Nc4ccc(Oc5ccc6c(c5)ncn6C)cc4F)c3n2)CC1 [Compound I-12]
GI50 [1]: 45 nM | GI50 [4]: 167 nM
